Legend:
Assay type in all cases: cell-based
[1] = system: N27 (rat dopaminergic neuronal cells); experiment: MTT cell proliferation assay, N27 cells; settings: 72 h, non-tumoral cells, read-out: Estimated IC50, N27
[2] = system: LNCaP cells (androgen-dependent prostatic cancer); experiment: MTT cell proliferation assay, LNCaP cells; settings: 72 h
[3] = system: MCF-7 cells (estrogen-responsive breast cancer cells); experiment: MTT cell proliferation assay, MCF-7 cells; settings: 72 h
[4] = system: all cell lines (NHDF, PNT1A, N27, LNCaP, PC-3, MCF-7); experiment: MTT preliminary screening, all cell lines taken together; settings: 50 µM, 72 h
Method: LNCaP, PC-3, MCF-7, PNT1A, N27, and NHDF cells were obtained from the American Type Culture Collection (ATCC; Manassas, VA, USA) and were cultured in 75 cm^2 culture flasks at 37 °C in a humidified air incubator with 5% CO2. LNCaP, PC-3, PNT1A, and N27 cells, respectively, were cultured in RPMI 1640 medium (Sigma-Aldrich, Inc. St. Louis, MO, USA) with 10% fetal bovine serum (FBS; Sigma-Aldrich, Inc. St. Louis, MO, USA) and 1% of the antibiotic mixture of 10,000 U/mL penicillin G and […] streptomycin (Sp, Sigma-Aldrich, Inc. St. Louis, MO, USA). MCF-7 cells were cultured in DMEM medium (Sigma-Aldrich, Inc. St. Louis, MO, USA) supplemented with 10% fetal bovine serum (FBS; Sigma-Aldrich, Inc. St. Louis, MO, USA) and 1% antibiotic/antimycotic (10,000 U/mL penicillin G, […] streptomycin, and 25 µg/mL amphotericin B: Ab, Sigma-Aldrich, Inc. St. Louis, MO, USA). Finally, NHDF cells were cultured in RPMI 1640 medium supplemented with 10% FBS, 2 mM L-glutamine, 10 mM HEPES, 1 mM sodium pyruvate, and 1% of the antibiotic/antimycotic Ab, and these cells were used in passages 10th to 14th. For all cell types, the medium was renewed every 2 days until cells nearly reached the confluence state. When cells reach approximately 90–95% confluence, they are gently detached by trypsinization (trypsin-EDTA solution: 0.125 g/L of trypsin and 0.02 g/L of EDTA). Before each experiment, viable cells were counted in a Neubauer chamber by a trypan-blue exclusion assay and adequately diluted in the appropriate complete cell culture medium.
All tested compounds were dissolved in dimethyl sulfoxide (DMSO; Sigma-Aldrich, Inc. St. Louis, MO, USA) at a concentration of 10 mM and stored at 4 °C. From the mother-solutions, the diluted solutions of the compounds, in different concentrations, were prepared in the respective complete culture medium before each experiment.
After reaching a confluence state, cells were trypsinized and counted by the trypan-blue exclusion assay and then seeded with an initial density of 2 × 10^4 cells/mL in 96-well culture plates (Nunc, Apogent, Denmark) and left to adhere and grow for 48 h. Subsequently, the medium was removed, and the cells were treated with compound solutions (10 and 50 µM for preliminary studies and 0.01, 0.1, 1, 10, 50, and 100 µM for concentration-response studies) in complete culture medium for 72 h. 5-Fluorouracil (5-FU) was used as a positive control, and untreated cells were used as the negative control. Compounds leading to cell proliferation relative to control clearly below 50%, at 10 µM, or clearly below 25%, at 50 µM, in the screening studies were selected to concentration-response studies in tumoral cell lines. Each experiment was performed in quadruplicate and independently at least two times. The in vitro antiproliferative effects were evaluated by the MTT assay (Sigma-Aldrich, Inc. St. Louis, MO, USA). After the incubation period, the medium was removed, and 100 µL of phosphate buffer saline (PBS, NaCl 137 mM; KCl 2.7 mM; Na2HPO4 10 mM; and KH2PO4 1.8 mM in deionized water with a pH adjusted to 7.4) were used to wash the cells. Then, 100 µL of the MTT solution (5 mg/mL) was prepared in the appropriate serum-free medium and added to each well, followed by incubation for 4 h at 37 °C. Hereafter, the MTT containing medium was removed, and the formazan crystals were dissolved in DMSO. Then, the absorbance was measured at 570 nm using a xMarkTM microplate spectrophotometer from BIO-RAD Laboratories. Cell viability values were expressed as percentages relative to the negative control.

MCF-7 cells [5] = experiment: Immunocytochemistry assay, Ki67 staining; settings: 48 h
Method: MCF-7 cells were trypsinized and counted by the trypan-blue exclusion assay, and then cells were seeded with an initial density of 3 × 10^4 cells/mL in 24-well culture plates (Nunc, Apogent, Denmark) containing circular coverslips of 10 mm diameter. Following seeding (48 h), cells were treated with 1 and 10 µM concentrations of 5-FU, as positive controls, and steroid 19 for 48 h. Untreated cells were used as a negative control. After this period, photograph shots were acquired at an optical microscope coupled with a digital camera (Supplementary Material, S2). Subsequently, the medium was removed, and cells were fixed with 10% formalin (15 min, room temperature). After fixation, cells were washed three times with PBS, permeabilized, and blocked for non-specific binding sites for 1 h with 0.5% Triton X-100 and 6% BSA at room temperature. Cells were incubated at 4 °C with 30 μL/coverslip of primary antibody, rabbit polyclonal anti-Ki67 (1:50, Abcam Plc.), prepared in 0.3% BSA and 0.1% Triton X-100, overnight. Then, cells were washed three times with PBS and incubated for 1 h, at room temperature, with 30 μL/coverslip of a solution containing the secondary antibody, Alexa Fluor 488 donkey anti-rabbit (1:200, Life Technologies), and the nuclear marker Hoechst-33342 (1:500, Life Technologies) prepared in PBS. Lastly, the coverslips were washed three times with PBS, mounted on a drop of the fluoroshield mounting medium (Abcam, Plc.) on a microscope slide, and left to dry for 24 h. Photomicrographs were taken using an Axio Imager A1 microscope (Carl Zeiss, Göttingen, Germany) with the 40 × objective.

MCF-7 cells [6] = experiment: Nuclear area analysis with ImageJ (Hoechst 33342-stained nuclei); settings: MCF-7, 1 and 10 µM, 48 h
Text: (§1) The nuclear measurements were achieved by converting 16-bit photomicrographs of Hoechst 33342-stained nuclei in different studied conditions into 8-bit images. Then, these imagens were autothresholded to binary photos using the default “Make binary” function of ImageJ (v. 1.49) software (NIH Image, Bethesda, MD, USA). Cell nuclei that are touching were separated and fragments were discarded based on area through “Analyze Particle” function. This function also provides several other information, such as nuclear area (NA), circumference, and form factor [26]. Furthermore, the “Nearest Neighbor Distance” (NND) was determined. This function allows measuring the distance between each cell nucleus and the nearest ones, providing information about cell distribution.

MCF-7 cells [7] = experiment: Nearest neighbor distance analysis with ImageJ; settings: MCF-7, 1 and 10 µM, 48 h
Text: as §1

(E)-16-(2,3-Dichlorobenzylidene)-3-hydroxy-5α ,6α -epoxy-10,13-dimethyl-1,3,4,7,8,9,10,11,12,13,15,16-dodecahydro-2H-cyclopenta[α ]phenanthren-17(14H)-one [Compound 19]
IC50 [1]: 13.3 µM
effect on LNCaP cell proliferation ([2]; LNCaP, 10 µM): no relevant effects
decrease in LNCaP cell proliferation ([2]; LNCaP, 50 µM): higher than 75%
IC50 ([2]; MTT, tumoral cells, read-out: Estimated IC50, LNCaP): 12.8 µM
decrease in cell proliferation ([3]; MCF-7, 10 µM): around 75%
cell proliferation relative to the control ([3]; MCF-7, 50 µM): ~0%
decrease in cell proliferation ([3]; MCF-7, 50 µM): ~100%
IC50 ([3]; MTT, tumoral cells, read-out: Estimated IC50, MCF-7): 3.47 µM
relative cell proliferation [4]: ≤ 50%
Ki67-positive cells relative to control (MCF-7 cells [5]; MCF-7, 1 µM): none of the compounds significantly affected
Ki67-positive cells relative to control (MCF-7 cells [5]; MCF-7, 10 µM): statistically significant decrease
nuclear area (NA) relative to the control (MCF-7 cells [6]): decreased significantly
cell distribution (nearest neighbor distance, NND) (MCF-7 cells [7]): more random distribution with nuclei more spaced

Source: PMC10045663, “Synthesis, In Vitro Biological Evaluation of Antiproliferative and Neuroprotective Effects and In Silico Studies of Novel 16E-Arylidene-5α,6α-epoxyepiandrosterone Derivatives” (Biomedicines, 2023)
